Consider one molecule from patent US5214063A, “4-aminobutyric acid compounds, compositions and methods of use for treating disorders related to a dysfunction of GABAB receptors” (Adir et Compagnie, priority 1990, dated 1993).

This test has as its system hippocampal preparations (CA3 pyramidal cells). Put plainly: Inhibition of excitation activity induced by convulsants (bicucullin) in hippocampal preparations. In kind it is cell-based. To be noted: 10 min; excitation induced by bicucullin (50 μM), compound perfused 10 minutes, adult female rat hippocampal preparations; read-out: inhibiting concentration 50 (IC50). The method, then: Hippocampal preparations were prepared from the brains of sacrificed adult female rats. Transverse sections were placed in a preservative medium. After 1 hour and 30 minutes' incubation, the isolated preparations were placed under registration, perfused with a saline solution and oxygenated. Spontaneous potentials appear which are associated with CA3 pyramidal cells. Excitation is induced by the addition of bicucullin (50 μM).
The compounds of the invention, at various concentrations, or baclofen are then added.
The baclofen or the compounds of the invention are perfused for periods of 10 minutes. The excitation rate is calculated during the four minutes preceding the perfusion of baclofen or the compounds of the invention and during the last four minutes of the perfusion of the products to be studied.
The inhibition is expressed as percentage excitation in relation to the initial rate, which permits the determination of an inhibiting concentration 50 (IC50). The compounds of the invention have an IC50 of from 5 to 20 μM; baclofen in this test has an IC50 of approximately 50 μM.

For the molecule `NCC(CC(=O)O)c1ccc(Cl)cc1` (stereo not shown) [baclofen, 4-amino-3-(4-chlorophenyl)butyric acid], the IC50 was approximately 50 µM.
